29 molecules from patent US20160052898A1, “NOVEL COMPOUNDS” (BAYER PHARMA AKTIENGESELLSCHAFT, priority 2013, published 2016) can be followed below.

Experiment [1] deals with constitutive active colorectal cancer cell (CRC) Wnt pathway. Description: HCT116 Super TopFlash cellular reporter assay (constitutive active Wnt pathway). The class given is cell-based. The following applies: Homo sapiens, HCT-116, 36 h, HCT116 TOP reporter cells, luciferase expression, 36 hours incubation, 50 μM to 15 nM. The essentials:
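HCT116 cells (β-catenin ΔS45) stably carrying Super TopFlash, with a parallel FOP-control line, were plated 24 h ahead. They were exposed 36 h at 37 °C, 5% CO2 to compound from a 50 μM–15 nM, 3.16-fold pre-dilution series in CAFTY buffer (pH 7.4, 2 mM Ca2+, 0.01% BSA). Wnt signalling was read as luciferase luminescence.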

Experiment [2] concerns HCT116 FOP control reporter cell line. Description: HCT116 FOP control vector reporter assay (non-functional TCF elements). The settings on record: Homo sapiens, HCT-116, 36 h, HCT116 FOP control reporter cells, luciferase expression, 36 hours incubation, 50 μM to 15 nM; read-out: HCT116 FOPFlash IC50. It counts as cell-based. The method, boiled down: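 Stable HCT116 line carrying the non-functional FOP luciferase construct, 10000 cells/well plated 24 hrs before. Compounds 50 μM to 15 nM (3.16-fold steps) in CAFTY buffer pH 7.4 with 2 mM Ca2+, 36 hours at 37° C; luciferase luminescence read.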
Background: A reporter such as luciferase makes a cellular process visible.

Where only a bound is given, the exact number is not on record here.

One may read the IC50 as the concentration that inhibits the measured activity by half. For the molecule `COc1ccc(NC(=O)c2ccc(-c3ccc(N(C)C)cc3)cc2)cc1NC(=O)CN1CCOCC1` [Example 198, 4′-(dimethylamino)-N-{4-methoxy-3-[(morpholin-4-ylacetyl)amino]phenyl} biphenyl-4-carboxamide], the IC50 in experiment [1] is 1500 nM; in experiment [2], not below 50 µM.
On to `CN(C)CCCNC(=O)c1ccc(C(=O)Nc2ccc(-c3ccccc3)cc2)cc1NC(=O)CN1CCOCC1` [Example 104, N^4-(biphenyl-4-yl)-N^1-[3-(dimethylamino)propyl]-2-[(morpholin-4-ylacetyl)amino]terephthalamide], for which the IC50 in experiment [1] worked out at 534 nM; in experiment [2] it was 7.4 µM.
For the molecule `COc1ccc(C(=O)Nc2ccc(-c3cc(F)cc(F)c3)c(F)c2)cc1NC(=O)CN1CCOCC1` [Example 123, 4-methoxy-3-[(morpholin-4-ylacetyl)amino]-N-(2,3′,5′-trifluorobiphenyl-4-yl)benzamide], the results for the IC50 in experiment [1] and in experiment [2] were 400 nM and not below 50 µM, respectively.
Taken in the same sequence, the figures for `O=C(CN1CCOCC1)Nc1cc(NC(=O)c2ccc(-c3ccccc3)cc2)ccc1C(F)(F)F` [Example 183, N-{3-[(morpholin-4-ylacetyl)amino]-4-(trifluoromethyl)phenyl} biphenyl-4-carboxamide] were 344 nM and not below 50 µM.
Consider `O=C(CN1CC2CCC(C1)O2)Nc1cc(C(=O)Nc2ccc(-c3ccccc3)cc2)ccc1C(F)(F)F` [Example 10, N-(biphenyl-4-yl)-3-[(8-oxa-3-azabicyclo[3.2.1]oct-3-ylacetyl)amino]-4-(trifluoromethyl)benzamide], for which the figures for the IC50 in experiment [1] and in experiment [2] were 170 nM and not below 50 µM, respectively.
On to `NC(=O)c1ccc(C(=O)Nc2ccc(-c3ccccc3)cc2)cc1NC(=O)CN1CCOCC1` [Example 116, N^4-(Biphenyl-4-yl)-2-[(morpholin-4-ylacetyl)amino]terephthalamide], for which the figures for the IC50 in experiment [1] and in experiment [2] were 132 nM and not below 50 µM, respectively.
Taken in the same sequence, the figures for `COCc1ccc(C(=O)Nc2ccc(-c3ccccc3)cc2)cc1NC(=O)C(C)N1CCOCC1` (single isomer, unassigned) [Example 169, N-(biphenyl-4-yl)-4-(methoxymethyl)-3-{[(2R*)-2-(morpholin-4-yl)propanoyl]amino} benzamide] were 154 nM and 10 µM.
Taken in the same sequence, the figures for `COCCCOCc1ccc(C(=O)Nc2ccc(-c3ccccc3)cc2)cc1NC(=O)CN1CCOCC1` [Example 87, N-(biphenyl-4-yl)-4-[(3-methoxypropoxy)methyl]-3-[(morpholin-4-ylacetyl)amino]benzamide] were 196 nM and 34 µM.
Taken in the same sequence, the figures for `COC(=O)c1ccc(C(=O)Nc2ccc(-c3ccccc3)cc2)cc1NC(=O)C1(N2CCOCC2)CC1` [Example 147, methyl 4-(biphenyl-4-ylcarbamoyl)-2-({[1-(morpholin-4-yl)cyclopropyl]carbonyl}amino)benzoate] were 10.2 nM and not below 50 µM.
Turning to `CCC(C(=O)Nc1cc(C(=O)Nc2ccc(-c3ccccc3)cc2)ccc1OC)N1CCOCC1` (single isomer, unassigned) [Example 131, N-(biphenyl-4-yl)-4-methoxy-3-{[(2R*)-2-(morpholin-4-yl)butanoyl)amino} benzamide], the IC50 in experiment [1] was 174 nM; in experiment [2], not below 50 µM.
Consider `COCc1ccc(C(=O)Nc2ccc(-c3ccccc3)cc2)cc1NC(=O)CN1C[C@@H]2C[C@H]1CO2` [Example 175, N-(biphenyl-4-yl)-4-(methoxymethyl)-3-{[(1S,4S)-2-oxa-5-azabicyclo[2.2.1]hept-5-ylacetyl)amino}benzamide], for which the IC50 came out at 218 nM in experiment [1] and 7.3 µM in experiment [2].
As for `COc1ccc(NC(=O)c2ccc(-c3ccccc3)cc2)cc1NC(=O)C1(N2CCN(C3CC3)CC2)CC1` [Example 185, N-[3-({[l-(4-cyclopropylpiperazin-1-yl)cyclopropyl]carbonyl}amino}-4-melhoxyphenyl)biphenyl-4-carboxamide], the IC50 was 374 nM in experiment [1] and not below 50 µM in experiment [2].
Taken in the same sequence, the figures for `O=C(CN1CCOCC1)Nc1cc(C(=O)Nc2ccc(-c3ccccc3)cc2)ccc1-c1cccs1` [Example 19, N-(biphenyl-4-yl)-3-[(morpholin-4-ylacetyl)amino]-4-(2-thienyl)benzamide] were 136 nM and not below 50 µM.
Taken in the same sequence, the figures for `CC(C(=O)Nc1cc(NC(=O)c2ccc(-c3ccccc3)cc2)ccc1C(F)(F)F)N1CCOCC1` (stereo not shown) [Example 161, N-[3-{[2-(morpholin-4-yl)propanoyl]amino}-4-(trifluoromethyl)phenyl] biphenyl-4-carboxamide] were 98 nM and not below 50 µM.
Take `Cc1ccc(NC(=O)c2ccc(-c3ccccc3)cc2)cc1NC(=O)CN1CCOCC1` [Example 70, N-{4-methyl-3-[(morpholin-4-ylacetyl)amino]phenyl}biphenyl-4-carboxamide]: the 50% inhibitory concentration (IC50) is 1350 nM in experiment [1] and not below 50 µM in experiment [2].
Taken in the same sequence, the figures for `O=C(CN1CCOCC1)Nc1cc(C(=O)Nc2ccc(-c3ccccc3)cc2)ccc1OC(F)F` [Example 184, N-(biphenyl-4-yl)-4-(difluoromethoxy)-3-[(morpholin-4-ylacetyl)amino]benzamide] were 346 nM and not below 50 µM.
Taken in the same sequence, the figures for `COCCOCc1ccc(C(=O)Nc2ccc(-c3ccccc3)cc2)cc1NC(=O)CN1CC2CCC(C1)O2` [Example 193, N-(biphenyl-4-yl)-4-[(2-methoxyethoxy)methyl]-3-[(8-oxa-3-azabicyclo[3.2.1]oct-3-ylacetyl)amino]benzamide] were 810 nM and 17 µM.
With `O=C(Nc1ccc(-c2ccccc2)cc1)c1ccc(OC2CC2)c(NC(=O)C2(N3CCOCC3)CC2)c1` [Example 113, N-(biphenyl-4-yl)-4-(cyclopropyloxy)-3-({[1-(morpholin-4-yl)cyclopropyl]carbonyl}amino)benzamide], the half-maximal inhibitory concentration (IC50) in experiment [1] was 159 nM; in experiment [2] it was not below 50 µM.
Taken in the same sequence, the figures for `COCCOc1ccc(C(=O)Nc2ccc(-c3ccccc3)cc2)cc1NC(=O)CN1CCOCC1` [Example 92, N-(biphenyl-4-yl)-4-(2-methoxyethoxy)-3-[(morpholin-4-ylacetyl)amino]benzamide] were 448 nM and not below 50 µM.
Turning to `CC(C(=O)Nc1cc(NC(=O)c2ccc(-c3ccccc3)cc2)ccc1C(F)(F)F)N1CCOCC1` (single isomer, unassigned) [Example 172, N-[3-{[(2R*)-2-(morpholin-4-yl)propanoyl]amino}-4-(trifluoromethyl)phenyl] biphenyl-4-carboxamide], the IC50 is 211 nM in experiment [1] and not below 50 µM in experiment [2].
Taken in the same sequence, the figures for `O=C(CN1CCOCC1)Nc1cc(C(=O)Nc2ccc(-c3ccccc3)cc2)ccc1C(=O)NCCCN1CCCC1` [Example 103, N^4-(biphenyl-4-yl)-2-[(morpholin-4-ylacetyl)amino]-N-[3-(pyrrolidin-1-yl)propyl]terephthalamide] were 302 nM and 7.4 µM.
For `COCCN(C)CC(=O)Nc1cc(NC(=O)c2ccc(-c3ccccc3)cc2)ccc1OC` [Example 49, N-(4-methoxy-3-{[N-(2-methoxyethyl)-N-methylglycyl]amino}phenyl)biphenyl-4-carboxamide], the IC50 in experiment [1] was 2650 nM; in experiment [2], not below 50 µM.
Taken in the same sequence, the figures for `COc1ccc(NC(=O)c2ccc(-c3ccccc3)cc2)cc1NC(=O)C1(N(C)C)CC1` [Example 189, N-[3-({[1-(dimethylamino)cyclopropyl]carbonyl}amino)-4-methoxyphenyl]biphenyl-4-carboxamide] were 479 nM and not below 50 µM.
With `COCCOCCOc1ccc(C(=O)Nc2ccc(-c3ccccc3)cc2)cc1NC(=O)C1(N2CCOCC2)CC1` [Example 217, N-(biphenyl-4-yl)-4-[2-(2-methoxyethoxy}ethoxy)-3-({[1-(morpholin-4-yl)cyclopropyl]carbonyl}amino)benzamide], the IC50 is 27 nM in experiment [1] and 1.63 µM in experiment [2].
`COc1ccc(C(=O)Nc2ccc(-c3ccccc3)cc2)cc1NC(=O)CN1CC(OC)C1` [Example 207, N-(biphenyl-4-yl)-4-methoxy-3-{[(3-methoxyazetidin-1-yl)acetyl]amino}benzamide]: the IC50 in experiment [1] is 2600 nM; in experiment [2] it was not below 50 µM.
Taken in the same sequence, the figures for `O=C(CN1CCOCC1)Nc1cc(NC(=O)c2ccc(-c3ccccc3)cc2)ccc1Cl` [Example 69, N-{4-chloro-3-[(morpholin-4-ylacetyl)amino]phenyl}biphenyl-4-carboxamide] were 810 nM and 9.3 µM.
Take `COc1ccc(NC(=O)c2ccc(-c3ccccc3)cc2)cc1NC(=O)CN1CCCC(OC)C1` (stereo not shown) [Example 38, N-(4-methoxy-3-{[(3-methoxypiperidin-1-yl)acetyl]amino}phenyl)biphenyl-4-carboxamide]: the IC50 in experiment [1] was 2000 nM; in experiment [2], not below 50 µM.
As to `CN1CCN(CC(=O)Nc2cc(C(=O)Nc3ccc(-c4ccccc4)cc3)ccc2CS(C)(=O)=O)CC1` [Example 125, N-(biphenyl-4-yl)-3-{[(4-methylpiperazin-1-yl)acetyl]amino}-4-[(methylsulfonyl)methyl]benzamide], the half-inhibitory concentration (IC50) in experiment [1] came out at 105 nM; in experiment [2] it was 8.9 µM.
On to `O=C(Nc1ccc(OC(F)(F)F)c(NC(=O)C2(N3CCOCC3)CC2)c1)c1ccc(-c2ccccc2)cc1` [Example 148, N-[3-({[1-(morpholin-4-yl)cyclopropyl]carbonyl}amino)-4-(trifluoromethoxy)phenyl] biphenyl-4-carboxamide], for which the concentration for half-maximal inhibition (IC50) in experiment [1] was 12.2 nM; in experiment [2], not below 50 µM.
